# Assay results as given in a melting point compilation (Tetko et al.; mined from patent text by program, amines drawn as free bases though some values may be those of a salt).
row,SMILES,melting point
1,CC(=O)O[C@@H]1OCC[C@@H]1NC(=O)[C@H](CC(C)C)NS(=O)(=O)c1ccc(N)cc1,189 to 190 °C
2,CCCc1nc(C(=O)OC)c(C(=O)OC)n1Cc1ccc(-c2ccccc2-c2nnnn2C(c2ccccc2)(c2ccccc2)c2ccccc2)cc1,124 to 126 °C
3,CCOC(=O)c1c(C)n(C)c(-c2ccccc2)cc1=O,154 °C
4,O=C(O)c1ccc(OCCNC(=O)C2Cc3ccccc3N2S(=O)(=O)c2ccc(-c3ccc(F)cc3Cl)cc2)nc1 (stereo not drawn),88 to 98 °C
5,CC(C)CCSc1cc(C(=O)O)cc(N)c1Oc1ccccc1,132 to 133 °C
6,CCOC(=O)c1cn(CC)c2cc(-c3csc(C(C)NC(C)=O)n3)c(F)cc2c1=O (stereo not drawn),236 to 238 °C
7,COc1ccc2c(c1)CN(C(=O)OCc1ccccc1)CC(=O)N2,138 °C
8,CC1(C)CCC(Br)(C(Br)c2ccc(Cl)cc2)C(=O)C1 (stereo not drawn),114 to 115 °C
9,O=[N+]([O-])c1ccc(N2C[C@@H]3C[C@H]2CO3)c(F)c1,106 to 108 °C
10,CCCCCCCCCCN1C(=O)C2C3CCC(O3)C2C1=O (stereo not drawn),30 to 31 °C
11,CCCn1nc2c(N)nc3ccccc3c2c1CCN1CCCS1(=O)=O,201 to 202 °C
12,CONC(=O)Nc1ccc(-c2nc3n(Cc4c(F)cccc4F)cc(C(=O)OC(C)C)c(=O)n3c2CN(C)Cc2ccccc2)cc1,156 to 158 °C
13,CCCCNC(=O)c1ccc(Cl)c(-n2nc(CCCC)n(Cc3ccc(-c4ccccc4S(=O)(=O)NC(=O)c4ccccc4Cl)cc3F)c2=O)c1,218 to 220 °C
14,[O-][N+](=CCCc1ccccc1)C1CCCCC1,97.2 °C
15,C=CC(CC(O)C(CC1CCCCC1)NC(=O)C(Cc1c[nH]cn1)NC(=O)C(Cc1ccccc1)Cc1ccccc1)C(C)C (stereo not drawn),98 °C
16,CCc1sc2ccccc2c1C(=O)O,136 °C
17,COc1ccc2sc(C(N)=O)c(SC(C)C)c2c1,143 to 144 °C
18,CS(=O)(=O)C(=C1CN(C(c2ccccc2)c2ccccc2)C1)c1ccc(Cl)cc1,192 °C
19,CCOC(=O)c1ccc(-c2cc(-c3ccc4c(c3)C(C)(C)CCC4(C)C)ccc2-c2ccccc2)cc1,233 to 235 °C
20,CCc1[nH]c(=O)[nH]c1C(=O)C(C)C,206 to 208 °C
21,O=C(CCl)Nc1ccc2c(c1NC(=O)c1ccc(F)cc1)C(=O)c1ccccc1C2=O,184 to 185 °C
22,c1ccc(-c2ccc3c4c([nH]c3c2)CCNCC4)cc1,220 to 222 °C
23,Cc1noc(-c2cc3c(OC[C@@H](O)CN4CCC(c5ccc6ccccc6c5)CC4)cccc3s2)n1,180 to 182 °C
24,CC(C)(C)c1cc(-c2n[nH]c(=O)s2)cc(C(C)(C)C)c1O,229 °C
25,N#Cc1cc(Cl)[nH]c1-c1oc2ccccc2c1Cl,224 to 226 °C

row,SMILES,melting point
1,Cc1cccc(-c2n[nH]cc2-c2ccc(F)c(-c3ccc(S(N)(=O)=O)c(C(F)(F)F)c3)c2)n1,107 to 110 °C
2,COc1cc2cc[nH]c2cc1OCCCN1CCC(c2noc3cc(F)ccc23)CC1,156 to 158 °C
3,CNC1=NS(=O)(=O)N=C1NCCSCc1csc(N(C)C)n1,227 to 229 °C
4,CCSC(=NC(=O)N(C)C)NC(=O)NC,109 to 112 °C
5,COc1cc(-c2ccc(C(C)C)cc2)cc2oc(=O)c(Cl)c(C)c12,124 °C
6,CN(C)c1ccc(C=CC(O)Cc2ccccc2)cc1 (stereo not drawn),158 to 162 °C
7,Cc1c(F)c(Br)cc2c1c(=O)c(C(=O)O)cn2C1CC1,237 to 239 °C
8,CCOc1ccc(-n2c(C(F)(F)F)nn(C)c2=S)cc1,93 to 95 °C
9,CCOc1ccc2cccnc2c1[N+](=O)[O-],161 to 164 °C
10,COc1cc(C=C2NC(=O)NC2=O)cc(OC)c1OC,266 to 268 °C
11,COC(=O)C1C=C2c3cccc4[nH]c(Br)c(c34)CC2N(C)C1 (stereo not drawn),124 to 125 °C
12,C=Cc1ccc([C@@H](C)N=Cc2cccc(C)n2)cc1,25 °C
13,CC(=O)N1c2ccccc2CC1c1ccccc1NC(=O)C(C)(C)C (stereo not drawn),184 to 186 °C
14,O=S(=O)(c1nc2c3ccccc3c3ccccc3c2[nH]1)C(F)(F)C(F)F,254 to 256 °C
15,CCCCCCC(C(=O)N1CCC[C@H]1C(=O)O)n1cnc(NC(=O)c2ccccc2S(=O)(=O)O)c1 (stereo partly drawn),190 to 195 °C
16,O=C(O)CNC(=O)c1ccccc1NC(=O)c1ccccc1O,222 to 224 °C
17,CC(=O)Oc1ccc(-c2cncnc2Cl)cc1OC(C)=O,108 °C
18,C=CCC(CC=C)(CC=C)c1ccc(-c2nc3cc4c(cc3n2CCC)C(=N)NC4=N)cc1,230 to 232 °C
19,CC(C)(C)c1csc(-c2cc3cc(OCc4ccccc4Cc4nnn[nH]4)ccc3o2)n1,80 to 84 °C
20,CCCC(CCNC(=O)C(C#N)=Cc1ccc(O)c(O)c1)NC(=O)C(C#N)=Cc1ccc(O)c(O)c1 (stereo not drawn),263 °C
21,Cc1ccc(C(=O)[C@H]2C[C@H]2C(=O)O)cc1 (relative stereo),165 to 166 °C
22,CC(C)(C)NC(=O)[C@@H]1CNNC1=O,175 to 178 °C
23,COC(=O)c1cccc([N+](=O)[O-])c1CBr,67 to 70 °C
24,COC(=O)C1=C(C)NC(C)=C(C(=O)OCC2CCCO2)C1c1cccc(NC(C)=O)c1 (stereo not drawn),158 to 160 °C
25,COc1cccc(Cc2cnc(NCCSCc3nccs3)[nH]c2=O)c1,104 to 106 °C

row,SMILES,melting point
1,CCOC(=O)c1ncn2c1CN(C)C(=O)c1cc(C#N)ccc1-2,184 °C
2,CC(=O)Nc1ccc2c(c1)OCCN2C(C)=O,150 to 154 °C
3,Cc1c2n(c(=O)c3cc(OC(=O)CN)cc(OC(=O)CN)c13)CCCC2,163 to 164 °C
4,COC(=O)CN1CC([N+](=O)[O-])=C(Cc2ccc(C(C)(C)C)cc2)C=C1C,135 °C
5,C#CCSc1ccncc1,55 to 56 °C
6,CCOC(=O)c1ncc2[nH]c3ccc(Br)cc3c2n1,286 to 290 °C
7,Cc1ccc2c(=O)n3nccc3[nH]c2n1,> 300 °C
8,COC(=O)CC(C#N)c1cccc2ccc(OC)cc12 (stereo not drawn),113 to 114 °C
9,CNCCOc1cccc2c1c1cc(C)ccc1n2Cc1ccccc1,96 to 96.8 °C
10,CC(C)c1ccc(S(=O)(=O)N2CCCC2c2ccc(F)cc2)cc1 (racemic),77 °C
11,Cc1nc(N)sc1C(=O)c1cccnc1,287 to 288 °C
12,CC(O)CC1NC(=O)c2sccc2-n2cccc21 (stereo not drawn),170 °C
13,COc1ccc(CN2CC=C(/C=C/c3ccccc3)CC2)cc1,144 to 146 °C
14,COc1ccc(CCNc2nc(O)c(NC(=O)c3ccco3)c(O)n2)cc1,> 250 °C
15,CNCc1ccccc1-c1ccc(C(=O)N2Cc3ccc(C(=O)NCc4cccnc4)n3Cc3ccccc32)cc1,149 to 150 °C
16,CCCn1c(=O)c2[nH]c(/C=C/c3ccccc3)nc2n(CCC)c1=O,259 to 261 °C
17,CC1(O)CC(=O)OC(CCc2ccc(O)cc2)C1 (stereo not drawn),135 to 137 °C
18,O=C(NN=Cc1ccc(Br)cc1)c1[nH]c2ccccc2c1Cc1ccccc1,227 to 229 °C
19,Cn1ccc2cc(N3Cc4ccc(OC(F)F)cc4C3=O)ccc21,180 to 182 °C
20,CC1(c2ccc(Cl)cc2)Cc2cc(O)c(Cl)c(Cl)c2C1=O (stereo not drawn),211 to 213 °C
21,CS(=O)(=O)c1cc(CCC(=O)O)nc(-c2nc(=O)c3ccc(F)cc3s2)c1,236 °C
22,OC(CSCc1ccc(Cl)cc1)C12CC3CC(CC(C3)C1)C2 (stereo not drawn),74 to 79 °C
23,Cc1ccccc1-c1ccn(C(C)(C)C(=O)N(C)C)n1,78.5 to 81 °C
24,COc1cc(C)nc(NC(=O)NS(=O)(=O)c2ccccc2-n2cccn2)n1,200 to 204 °C
25,O=C1[C@H]2CCC[C@H]2Nc2ccc(F)cc2N1Cc1ccccc1 (relative stereo),124 to 126 °C

row,SMILES,melting point
1,Cc1cc2nc3[nH]c4ccc(Br)cc4c3nc2cc1C,319 to 322 °C
2,O=C(O)c1cn2c(n1)COc1ccc([N+](=O)[O-])cc1-2,310 to 312 °C
3,CCCCCCCCC/C=C(\C)C(=O)O,28 to 31 °C
4,FC(F)(F)c1cccc(Sc2cc(Br)nc(Br)c2)c1,68 to 70 °C
5,Cc1cc(N(C)C)ccc1C=O,66 to 67 °C
6,COc1ccc2nccc(NC(=O)N3CCN(CC(=O)c4cnc5ccccc5n4)CC3)c2n1,167 to 169 °C
7,CN1CCc2cc(CO)sc2C(c2ccccc2)C1 (stereo not drawn),112 °C
8,COC(=O)c1ccccc1-c1cc(-c2cccc(C(F)(F)F)c2)no1,46 to 48 °C
9,COc1ccc(CN2C(=O)C(O)(c3cc(CO)ccc3Cl)c3cc(Cl)ccc32)c(OC)c1 (stereo not drawn),107 °C
10,N#Cc1c[nH]c2c(C(=O)O)cccc12,318 °C
11,COC(=O)Nc1cccc(C(=O)OC)c1NCc1ccc(-c2ccccc2C#N)cc1,113 to 115 °C
12,O=[N+]([O-])c1cc(-c2ccoc2)ccc1Nc1cc(-n2ccnc2)ncn1,198 to 200 °C
13,CCCc1nn(Cc2ccccc2)c(C(N)=O)c1NC(=O)c1cc(S(=O)(=O)N2CCN(C)CC2)ccc1OCC,182 to 184 °C
14,OC(CCCc1cccnc1)COc1ccc(C=Cc2ccccc2)cc1 (stereo not drawn),110 to 111 °C
15,COc1cc(C)c(C=CC(C)=CCCC=O)c(C)c1C,42 to 45 °C
16,CC(C)N(Cc1nc(-c2ncn3c2CN(C)C(=O)c2c-3ccc(F)c2Cl)no1)C(C)C,153 to 156 °C
17,CC(=CCc1c(C)nc(N)nc1O)c1cc(Cl)ccc1Cl,> 250 °C
18,O=C(c1cc(-c2ccccc2)c(=O)n2c1-c1ccccc1C2)N1CCOCC1,262 to 266 °C
19,O=C(O)COc1ccc2c(-c3ccccc3F)noc2c1,182 to 184 °C
20,Cc1ccc(-n2c(-c3ccc(C=Cc4ccccc4)cc3)ccc2-c2ccc(C=Cc3ccccc3)cc2)cc1,297 to 298 °C
21,COc1cccc(Cc2cc3cccc(-c4cccc(C(=O)Nc5ccc(F)nc5)c4)c3o2)c1,196 to 199 °C
22,CC(c1oc2ccccc2c(=O)c1-c1cccc(F)c1)n1nc(-c2ccccc2CO)c2c(N)ncnc21 (stereo not drawn),185 to 189 °C
23,Cc1nnc(-c2ccccc2F)n2nc(OCc3ncnn3C)c(-c3ccoc3)c12,150 to 153 °C
